Assay results reported in patent US20210330596A1, “PHARMACEUTICAL COMPOSITION FOR USE IN A COMBINATION WITH CA[…] ENHANCE BENEFITS OF CA[…] SUPPORT HUMAN ENDOCANNABINOID SYSTEM” (priority 2020, published 2021).
Values joined by “and” are separate entries in the source; they are usually repeats but may differ in a detail not shown here. Equal values may be shown once.

Tested on: mice's endocannabinoid system
Experiment: maze and food trial: time the mice need to solve the maze after feed
Format: in vivo
Conditions: for time to solve the maze, Time 0, individual mouse / time to solve the maze, Time 0, Average: 10 minutes after feed; for time to solve the maze, Time 0, individual mouse / time to solve the maze, Time 1, individual mouse: mouse # 1-10 in table order; for time to solve the maze, Time 0, Average / time to solve the maze, Time 1, Average: ten mice; for time to solve the maze, Time 1, individual mouse / time to solve the maze, Time 1, Average: 120 minutes after feed
Method: In an embodiment, the pharmaceutical composition of the present invention relates to an essential oil rich composition that supports the endocannabinoid system. Following tables 1-5 describe trials conducted with ten mice (Wistar) utilizing a maze and food to determine how long on average the mice solves the maze at 10 and 120 minutes after starting the experiment.
Table 1 is the base when the mice learned the experiment. It took 7 days of training (4 repetitions per day) to get the base time for each mice.
The Average Time results were statistically slower to the Control (Table 3) results with a standard deviation of less than 3%. The slowness with which the mice solved the maze leads us to believe either the embodiment has some entourage effect (as described by Ben-Shabat et. Al. in the European Journal of Pharmacology, 1998) or has supported the endocannabinoid system in mice because the mice took at least as long to solve the maze as before they developed tolerance to THC. The Entourage Effect was also described by Russo et. al. in his paper “Taming THC: potential cannabis synergy and phytocannabinoid-terpenoid entourage effects”, published in the British Journal of Pharmacology, 2011 August; 163(7): 1344-1364.
In this Table we see the results of THC 24 hours after the embodiment was administered. Mice on average take 1-5 hours to digest food. It is estimated that mice will have completely metabolized the embodiment after 24 hours. After THC was administered but now without the embodiment, mice are experiencing the same heightened effects of THC as in FIG. 4, even after the embodiment was not present in their body after a 24 hour period.

[1] = Day 1 CONTROL, 0.3 mgTHC/kg, before tolerance
[2] = Day 14 BASELINE 2 (acquired tolerance), 0.3 mgTHC/kg/day
[3] = TRIAL 2, 0.3 mgTHC + 0.0 mg embodiment/kg, THC 24 hours after the embodiment was administered

SMILES: CCCCCc1cc(O)c2c(c1)OC(C)(C)[C@@H]1CCC(C)=C[C@@H]21 [THC, Tetrahydrocannabinol]
- time to solve the maze, Time 0, individual mouse [1]: 16 ± 3 minutes and 17 ± 3 minutes (2×) and 23 ± 3 minutes and 20 ± 3 minutes and 25 ± 3 minutes and 30 ± 3 minutes and 26 ± 3 minutes and 19 ± 3 minutes and 24 ± 3 minutes
- time to solve the maze, Time 0, Average [1]: 22 ± 3 min
- time to solve the maze, Time 1, individual mouse [1]: 14 ± 3 minutes (2×) and 10 ± 3 minutes (2×) and 19 ± 3 minutes (2×) and 22 ± 3 minutes (2×) and 21 ± 3 minutes and 16 ± 3 minutes
- time to solve the maze, Time 1, Average [1]: 17 ± 3 min
- time to solve the maze, Time 0, individual mouse [2]: 16 ± 3 minutes (2×) and 19 ± 3 minutes (2×) and 18 ± 3 minutes (2×) and 14 ± 3 minutes and 13 ± 3 minutes and 12 ± 3 minutes and 11 ± 3 minutes
- time to solve the maze, Time 0, Average [2]: 14 ± 3 min
- time to solve the maze, Time 1, individual mouse [2]: 14 ± 3 minutes and 15 ± 3 minutes (2×) and 12 ± 3 minutes and 10 ± 3 minutes (4×) and 11 ± 3 minutes (2×)
- time to solve the maze, Time 1, Average [2]: 12 ± 3 min
- time to solve the maze, Time 0, individual mouse [3]: 27 ± 3 minutes (2×) and 20 ± 3 minutes and 22 ± 3 minutes (2×) and 17 ± 3 minutes and 16 ± 3 minutes and 21 ± 3 minutes and 18 ± 3 minutes and 29 ± 3 minutes
- time to solve the maze, Time 0, Average [3]: 22 ± 3 min
- time to solve the maze, Time 1, individual mouse [3]: 22 ± 3 minutes and 19 ± 3 minutes (2×) and 16 ± 3 minutes and 23 ± 3 minutes and 15 ± 3 minutes and 12 ± 3 minutes and 9 ± 3 minutes and 17 ± 3 minutes and 20 ± 3 minutes
- time to solve the maze, Time 1, Average [3]: 17 ± 3 min
- maze solved faster on average than the Control Time, T0 (after 15 days of daily THC dose of 0.3 mgTHC/kg, Time 0 (10 minutes after feed), tolerance to THC): 40%
- maze solved faster on average than the Control Time, T1 (after 15 days of daily THC dose of 0.3 mgTHC/kg, Time 1 (120 minutes after feed), tolerance to THC): up to 60%
